This passage reports inhibition results from ChEMBL document CHEMBL3132769, “Fragment growing to retain or alter the selectivity of anchored kinase hinge-binding fragments” (Medchemcomm, 2014).

Molecules are shown by their SMILES.

Assay [1] addresses Mitogen-activated protein kinase 14 (Homo sapiens) (UniProt Q16539). As to the kind of experiment: Inhibition of human truncated p38 alpha expressed in Escherichia coli cell assessed as substrate phosphorylation using fluorescence-labelled peptides as substrate at 0.2 uM after 90 mins by microfluidic peptide phosphorylation assay.
Assay [2] has as its target Protein kinase C eta type (Homo sapiens) (UniProt P24723). The assay is described as follows: Inhibition of human truncated PKC eta expressed in baculovirus assessed as substrate phosphorylation using fluorescence-labelled peptides as substrate at 0.2 uM after 90 mins by microfluidic peptide phosphorylation assay.
Assay [3] concerns the target MAP kinase p38 (Homo sapiens) (UniProt O15264+Q15759+Q16539+P53778). The following applies: 0.1 uM.
Description: Inhibition of human full length p38 beta2 expressed in Escherichia coli cell assessed as substrate phosphorylation using fluorescence-labelled peptides as substrate at 0.1 uM after 90 mins by microfluidic peptide phosphorylation assay
Assay [4] addresses T1, Serine/threonine-protein kinase D3 (Homo sapiens) (UniProt O94806).
T1 sequence (whole entry): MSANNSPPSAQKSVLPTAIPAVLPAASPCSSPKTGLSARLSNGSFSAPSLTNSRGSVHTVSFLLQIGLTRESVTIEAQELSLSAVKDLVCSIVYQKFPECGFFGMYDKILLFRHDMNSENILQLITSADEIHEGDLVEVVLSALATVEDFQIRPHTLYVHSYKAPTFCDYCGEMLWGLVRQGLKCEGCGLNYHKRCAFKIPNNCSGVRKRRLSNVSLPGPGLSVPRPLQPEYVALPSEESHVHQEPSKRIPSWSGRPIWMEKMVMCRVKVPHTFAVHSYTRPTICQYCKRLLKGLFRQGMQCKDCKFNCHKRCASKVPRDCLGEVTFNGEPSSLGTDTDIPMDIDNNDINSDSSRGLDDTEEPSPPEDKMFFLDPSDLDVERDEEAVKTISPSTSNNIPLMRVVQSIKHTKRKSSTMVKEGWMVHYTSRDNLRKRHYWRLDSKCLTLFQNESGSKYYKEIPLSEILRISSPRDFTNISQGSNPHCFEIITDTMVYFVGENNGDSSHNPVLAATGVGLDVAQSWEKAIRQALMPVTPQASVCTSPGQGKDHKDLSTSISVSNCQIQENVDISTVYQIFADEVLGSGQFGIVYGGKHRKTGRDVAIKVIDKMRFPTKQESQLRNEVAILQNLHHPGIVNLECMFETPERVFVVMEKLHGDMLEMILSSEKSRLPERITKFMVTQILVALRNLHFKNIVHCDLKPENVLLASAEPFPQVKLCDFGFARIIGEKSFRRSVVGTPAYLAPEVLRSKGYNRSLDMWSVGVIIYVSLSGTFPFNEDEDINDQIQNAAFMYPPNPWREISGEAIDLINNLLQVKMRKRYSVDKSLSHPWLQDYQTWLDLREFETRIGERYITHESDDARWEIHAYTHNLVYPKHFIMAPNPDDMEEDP
The assay is described as follows: Inhibition of human full length PKD3 expressed in baculovirus assessed as substrate phosphorylation using fluorescence-labelled peptides as substrate at 95 uM after 90 mins by microfluidic peptide phosphorylation assay.

In assay [5] the test system is T2, Receptor-type tyrosine-protein kinase FLT3 (Homo sapiens), P36888 [D835Y].
T2 sequence (whole entry): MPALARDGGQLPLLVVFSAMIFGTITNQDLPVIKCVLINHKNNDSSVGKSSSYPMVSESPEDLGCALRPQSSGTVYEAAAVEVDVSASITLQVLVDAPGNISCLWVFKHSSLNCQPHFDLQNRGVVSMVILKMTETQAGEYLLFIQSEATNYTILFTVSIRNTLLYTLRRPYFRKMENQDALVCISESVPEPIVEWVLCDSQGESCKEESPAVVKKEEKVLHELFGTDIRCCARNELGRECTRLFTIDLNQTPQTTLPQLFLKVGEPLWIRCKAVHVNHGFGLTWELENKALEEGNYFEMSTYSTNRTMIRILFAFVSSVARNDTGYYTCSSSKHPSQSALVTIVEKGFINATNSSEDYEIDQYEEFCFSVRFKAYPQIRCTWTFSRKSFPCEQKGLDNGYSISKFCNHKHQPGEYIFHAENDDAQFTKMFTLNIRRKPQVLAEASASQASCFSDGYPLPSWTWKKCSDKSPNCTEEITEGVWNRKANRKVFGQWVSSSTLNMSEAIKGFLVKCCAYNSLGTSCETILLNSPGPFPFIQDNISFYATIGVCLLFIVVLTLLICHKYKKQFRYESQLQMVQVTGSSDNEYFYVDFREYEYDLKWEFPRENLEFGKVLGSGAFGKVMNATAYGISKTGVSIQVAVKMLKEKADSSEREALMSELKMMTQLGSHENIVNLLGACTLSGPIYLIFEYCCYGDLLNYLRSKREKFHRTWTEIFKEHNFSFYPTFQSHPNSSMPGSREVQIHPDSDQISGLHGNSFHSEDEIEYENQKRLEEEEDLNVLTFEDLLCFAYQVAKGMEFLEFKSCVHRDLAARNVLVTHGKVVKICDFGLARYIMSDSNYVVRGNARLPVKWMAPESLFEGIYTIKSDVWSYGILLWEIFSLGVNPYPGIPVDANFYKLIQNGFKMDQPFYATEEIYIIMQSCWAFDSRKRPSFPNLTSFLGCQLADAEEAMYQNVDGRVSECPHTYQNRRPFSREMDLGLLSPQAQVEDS
The assay is described as follows: Inhibition of human FLT3 D835Y mutant catalytic domain expressed in baculovirus assessed as substrate phosphorylation using fluorescence-labelled peptides as substrate at 70 uM after 90 mins by microfluidic peptide phosphorylation assay.

Protein kinase C eta type (Homo sapiens), sequence (P24723 whole entry, the tested form may be a part): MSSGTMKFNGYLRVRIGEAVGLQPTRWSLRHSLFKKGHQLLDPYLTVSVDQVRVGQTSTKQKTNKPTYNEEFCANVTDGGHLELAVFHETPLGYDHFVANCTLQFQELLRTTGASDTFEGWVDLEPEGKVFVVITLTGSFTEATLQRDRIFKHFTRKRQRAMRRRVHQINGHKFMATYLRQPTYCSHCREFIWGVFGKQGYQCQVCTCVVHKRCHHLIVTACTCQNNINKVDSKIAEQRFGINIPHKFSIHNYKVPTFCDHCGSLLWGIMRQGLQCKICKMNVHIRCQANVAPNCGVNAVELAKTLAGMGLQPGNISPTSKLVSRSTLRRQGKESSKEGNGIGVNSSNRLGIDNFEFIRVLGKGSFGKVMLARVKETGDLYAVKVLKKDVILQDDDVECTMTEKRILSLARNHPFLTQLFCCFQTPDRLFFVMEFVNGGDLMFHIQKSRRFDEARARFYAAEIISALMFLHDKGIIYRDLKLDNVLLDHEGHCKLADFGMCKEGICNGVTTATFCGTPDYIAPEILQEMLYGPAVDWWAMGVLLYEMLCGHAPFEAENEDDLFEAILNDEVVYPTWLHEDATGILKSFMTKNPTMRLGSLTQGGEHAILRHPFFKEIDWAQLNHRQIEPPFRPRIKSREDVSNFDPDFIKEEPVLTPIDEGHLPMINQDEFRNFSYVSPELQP
Mitogen-activated protein kinase 14 (Homo sapiens), sequence (Q16539 whole entry, the tested form may be a part): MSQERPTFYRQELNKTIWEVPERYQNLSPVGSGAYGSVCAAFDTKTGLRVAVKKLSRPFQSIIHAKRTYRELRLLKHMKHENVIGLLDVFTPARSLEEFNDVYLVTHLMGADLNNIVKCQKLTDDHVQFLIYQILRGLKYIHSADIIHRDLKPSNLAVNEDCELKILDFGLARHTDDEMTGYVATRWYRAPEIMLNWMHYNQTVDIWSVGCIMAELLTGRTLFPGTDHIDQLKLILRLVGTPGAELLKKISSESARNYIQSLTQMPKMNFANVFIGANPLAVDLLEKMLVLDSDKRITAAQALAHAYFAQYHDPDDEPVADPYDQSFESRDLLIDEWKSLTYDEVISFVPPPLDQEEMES

For orientation: inhibition means the change of the read-out against control, counted positive when it falls. Consider `Clc1ccc(C2(c3ccc(-c4ncnc5[nH]cnc45)cc3)CCNCC2)cc1`, for which the inhibition in assay [1] was determined as 5%; in assay [2], 36.5%.
Consider `C[C@H](CN(C)C)Oc1nc(Nc2cc3cccc(Cl)c3cn2)cnc1C#N`, for which the inhibition in assay [3] was found to be 0%.
For the compound `NCCc1ccc(-c2ncnc3[nH]cnc23)cc1`, in assay [4], the inhibition was determined as 61.5%.
Turning to `CNCc1ccc(-c2ncnc3[nH]cnc23)cc1`, the inhibition in assay [5] was found to be 69%.
